The text below walks through data of the OPERA property sets (Mansouri et al. 2018).

Where a SMILES comes first, the peptide text is derived from it. [ ]: non-standard residue; d: D form. The star is where a group is joined. Orn = NCCC[CH](N)C(=O)O; Boc = CC(C)(C)OC(=O)*

For the compound `O=NN(CCCl)C(=O)NC1CCCCC1C(=O)O` (centres undefined), the lipophilicity (logP) (in general, the decadic logarithm of the partition coefficient of the neutral form, usually between octanol and water) is 2.01. As for `Clc1cccc(-c2c(Cl)c(Cl)c(Cl)c(Cl)c2Cl)c1`, the figure is 7.3. `CN(C)N=Nc1ccc(S(C)(=O)=O)cc1` yielded a logP of 1.59. In turn, `CC(C)CNC(=O)C1(O)C(C)CC2C3CCC4=CC(=O)C=CC4(C)C3(F)C(O)CC21C` (centres undefined) showed a logP of 3.01. The result for `Cc1cn(C2CC(N=[N+]=[N-])C(COC(=O)CCCNC(=O)C34CC5CC(CC(C5)C3)C4)O2)c(=O)[nH]c1=O` (centres undefined) reads 2.47; that for `CN(C)N=Nc1ccc(S(=O)(=O)CCO)cc1`, 1.15. As for `CN(C)c1ccc2c(c1)C(=O)N(OS(C)(=O)=O)C2=O`, the figure is 1.65.

`Cc1ccc(Cl)c(C)c1` registered a logP of 3.83.

In the case of `CC(C)NCC(O)COCCCc1ccccc1` (centres undefined), the logP amounted to 1.94. The result for `COc1ccc2ccc(=O)oc2c1` reads 1.74.

On to `Cc1ccc2c(=O)[nH]c(=O)[nH]c2c1`, for which the logP amounted to 0.55. As for `COc1ccc(Cc2cccc(-c3c(O)c4ccc(Cl)cc4[nH]c3=O)c2)cc1`, the figure is 4.8; as for `CCCSP(=O)(OCC)Oc1cnn(-c2ccc(Cl)cc2)c1` (centres undefined), 3.77.

`CC(=O)NC(CCCN)C(=O)NC(Cc1ccccc1)C(=O)NC(CC(C)C)C(N)=O` (stereo not drawn) (Ac-[Orn]-Phe-Leu-NH2; configuration not given here) had a logP of 0.54. As for `CCOC(=O)Cn1ccnc1[N+](=O)[O-]`, the figure is 0.33; as for `CC(C)(C)OC(=O)NC(Cc1ccccc1)C(=O)NC(Cc1ccc(O)cc1)C(=O)O` (stereo not drawn) (Boc-Phe-Tyr-OH; configuration not given here), 2.79. For `CC(=O)NC(Cc1ccccc1)C(=O)NC(CCC(=O)O)C(=O)NC(Cc1ccccc1)C(N)=O` (stereo not drawn) (Ac-Phe-Glu-Phe-NH2; configuration not given here), the logP was found to be 0.65.

`CCC1(C(C)c2ccccc2)C(=O)NC(=O)N(C)C1=O` (centres undefined) came in with a lipophilicity (logP) of 3.14. As for `COc1ccccc1SCc1ccccc1CCCN1CCC(O)CC1`, the figure is 3.58; as for `O=C(O)c1ccc([N+](=O)[O-])c(O)c1`, 1.98; as for `C#CCOc1c(Cl)cc(NC=NOCC=CCl)cc1Cl`, 3.9. As for `C#CCC(O)(c1cccnc1)c1ccc(Cl)c(Cl)c1` (centres undefined), the figure is 2.42; as for `CC1CSC2C(NC(=O)C(O)c3ccccc3)C(=O)N2C1C(=O)O` (centres undefined), 0.47. As for `O=C(Cn1cnnn1)N[C@@H]1C(=O)N2C(C(=O)O)=C(CSc3nncs3)CS[C@H]12`, the figure is -0.67; as for `CC(=O)NC(CC(C)C)C(=O)NC(CCCN)C(=O)NC(Cc1ccccc1)C(N)=O` (centres undefined) (Ac-Leu-[Orn]-Phe-NH2; configuration not given here), 0.53; as for `O=C(NC(CO)C(O)c1ccc(-c2ccccn2)cc1)C(F)(F)F` (centres undefined), 1.31. Take `Nc1ccc2c(c1)C(=O)N(O)C2=O`: the logP was 0.16. Regarding `O=C(c1c[nH]c2ccccc12)C(F)(F)F`, the logP stood at 3.44. The result for `CCC(=O)C1(c2cccc(OC(=O)OC)c2)CCN(C)CC1` reads 0.75; that for `CC(C)(C)C(COc1ccc(S(C)(=O)=O)cc1)OC(=O)n1ccnc1` (centres undefined), 2.59; that for `Cc1n[nH]c(C(=O)N2CCCC2)c1[N+](=O)[O-]`, 0.25. As for `COCC(Cn1ccnc1[N+](=O)[O-])OC` (centres undefined), the figure is 0.06; as for `Clc1ccc(Cl)c(-c2cccc(Cl)c2Cl)c1`, 5.81; as for `CCOc1ccc(NC(=O)OCCN2CCOCC2)cc1`, 2.18. The result for `CCOC(=O)C(C)Oc1ccc(Oc2cnc3cc(F)ccc3n2)cc1` (centres undefined) reads 3.65; that for `CC(=O)OC1CC(OC2CCC3(C)C(CCC4C3CC(O)C3(C)C(C5=CC(=O)OC5)CCC43O)C2)OC(C)C1OC1CC(O)C(OC2CC(O)C(O)C(C)O2)C(C)O1` (centres undefined), 1.71; that for `Nc1ncnc2c1nc(F)n2C1CCC(CO)O1` (centres undefined), -0.03.

For the compound `Nc1nc(N)nc(C(Cl)(Cl)Cl)n1`, the logP was determined as 1.24. As for `NC1=NCC2c3ccccc3Cc3ccccc3N12` (centres undefined), the figure is 3.51.
